Laboratory results published in patent US20100204161A1, “Substances and Pharmaceutical Compositions for the Inhibition of Glyoxalases and Their Use Against Bacteria” (BIOMAC PRIVATINSTITUT FUR MEDIZINISHE UND ZAHMEDIZ …, priority 2005, published 2010).

Experiments:
[1] = tested on: primary human skin fibroblasts; experiment: Vitality of primary human fibroblasts (dye exclusion count); assay type: cell-based; details: 1-50 mM, serum free medium, 24 hours; FIG. 7
Method: An identical number (10^4 cells per well) of primary human skin fibroblasts were inoculated in 24-well plates (Greiner, no. 662160) and were cultured in DMEM (Gibco; no. 41966-092) in the presence of 10% calf serum (Biochrom, S0113/5), 2 mM L-glutamine (Gibco; no. 25030-024), penicillin/streptomycin (100 units penicillin/ml; 100 μg streptomycin/ml, Gibco; no. 15140/122), 5 mg % ascorbic acid (Serva, no. 14030.02) at 37° C., 5% CO2 and 95% humidity. The primary human fibroblasts were prepared according to the instructions of Birkenmeier et al. (1998). After reaching 50% confluency the medium was by fresh serum free medium. Thereafter the following supplements were added to the cells: preparation 1 (equivalent volume of serum free (SF) medium, blank); preparation 2 (1 mM DEL or 1 mM LEL or 1 mM EP); preparation 3 (5 mM DEL or 5 mM LEL or 5 mM EP), preparation 4 (10 mM DEL or 10 mM LEL or 10 mM EP), preparation 5 (20 mM DEL or 20 mM LEL or 20 mM EP), preparation 6 (50 mM DEL or 50 mM LEL or 50 mM EP). The culture was continued at 37° C., 5% CO2 and 95% humidity for 24 hours. Thereafter the supernatants were removed and 100 μl of a 50% […] solution was added to the wells. After washing the cells with medium the unstained and stained cells were counted under the light optical microscope comprising a coordinate plane. Cells stained blue were assessed as avital, unstained cells as vital. The percentage of unstained cells of the total number of cells corresponds to the vitality of the cells.

[2] = target: T1, yeast glyoxalase I (Saccharomyces cerevisiae, UniProt P50107); experiment: Enzymatic activity of yeast glyoxalase I (formation of S-D-lactoyl-glutathione, 240 nm); assay type: biochemical; details: for Influence on the enzymatic activity of yeast glyoxalase I: increasing concentrations (0-30 mM in Example 5), FIG. 1-3
T1 construct: purchased Sigma G-4252
T1 sequence (P50107 1-326): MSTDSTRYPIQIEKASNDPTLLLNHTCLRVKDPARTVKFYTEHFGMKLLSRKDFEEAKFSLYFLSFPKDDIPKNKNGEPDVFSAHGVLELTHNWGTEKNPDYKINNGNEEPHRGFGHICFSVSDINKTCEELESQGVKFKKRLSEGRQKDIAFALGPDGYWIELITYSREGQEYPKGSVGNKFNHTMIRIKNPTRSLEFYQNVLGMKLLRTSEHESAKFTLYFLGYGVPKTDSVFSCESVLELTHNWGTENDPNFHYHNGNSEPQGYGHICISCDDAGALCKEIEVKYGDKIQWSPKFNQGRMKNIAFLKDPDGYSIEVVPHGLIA
Method: Measuring glyoxalase I (E.C.4.4.1.5, lactoyl-glutathione lyase Sigma, G-4252) was performed according to the instructions of McLellan and Thornalley (1989). The principle is based on measuring the initial rate of formation of S-D-lactoyl-glutathione from methylglyoxal (Sigma, MO252, 40%) and reduced L-glutathione (Aldrich, G-4251, >99%). The formation of the product is observed using the extinction coefficient e=2.86 mM-1 cm-1 at 240 nm. The measurement was performed in 50 mM sodium phosphate buffer, pH 7.0. For that purpose 2 mM methylglyoxal and 2 mM reduced glutathione were incubated for 2 minutes at 30° C. for the formation of the hemithioacetal. Thereafter 20 μl of a 1 to 1000 dilution of the glyoxalase I (Sigma, G-4252) was added to 1 ml of the measuring reagent to start the reaction.
Glyoxalase activity (IU) corresponds to the amount of enzyme forming 1 μmol of S-D-lactoyl-glutathione/min.
Determination of glyoxalase I activity was performed according to the general protocol as described above. The influence of ethyl pyruvate on enzyme activity was investigated by addition of increasing concentrations of EP (Sigma; no. E4, 780-8; lot. S18972-513) to the measuring reagent.
Determination of glyoxalase I activity was performed according to the general protocol as described above. The influence of compounds of the general formula (I), (II), and (III) on the activity of the enzyme was investigated by addition of increasing concentrations of these compounds to the preparation. The IC50-values were calculated from inhibition curves of each compound.
Determination of glyoxalase I activity was performed according to the general protocol as described above. The influence of 2-oxopropanethioic acid S-ethyl ester on the activity of the enzyme was investigated by addition of increasing concentrations of SE to the preparation for the measurement.
Determination of glyoxalase I activity was performed according to the general protocol as described above. The influence of effectors on the enzymatic activity was investigated by addition of increasing concentrations (0-30 mM) of EP (Sigma; no. E4, 780-8; lot. S18972-513) (triangle), BP (prepared according to the instructions of patent JP 11080089; 98%) (circle) and BL (Fluka, 69819; lot. 443090/1 21503090) (squares) to the measuring reagent (FIG. 3).

[3] = tested on: NAD-dependent lactate dehydrogenases; experiment: Interconversion by NAD-dependent lactate dehydrogenases; assay type: in vitro ADME; details: inventors' own measurements
[4] = tested on: biofilms (biofilm-forming microorganisms from pipe water); experiment: Destruction of biofilms on contaminated silicone surfaces (colony forming units); assay type: cell-based; details: normalized to 1 cm2 inner tube surface
Method: Biofilms were allowed to generate in a silicon tube system according to Gebel et al. (2005). In short, pipe water from a public water distributor was used as the source of biofilm-forming microorganisms. Water flow was at about 20 l per hour through silicon tubes from two commercial suppliers with inner diameters of 4 mm for 30 days at 25° C. After that the tubes were emptied, sealed at both ends and treated on their outer surface with 0.2% peroxoacetic acid for 1 hour. Tubes were then rinsed with sterile water and afterwards cut into pieces of 5 cm length each using a sterile scalpel. Pieces obtained this way were then dipped into solutions which contained the substance to be tested or respective controls. 25 ml of the test solutions were used in closed Falcon tubes (50 ml). […] Tubes were opened over their full length with scissors and the material deposited at the original inner surfaces of the tubes homogenized in 10 ml of saline (9 g NaCl/l water). Dilutions were made (decimal steps to 10^4) and 0.1 ml of these solutions plated onto test agar plates (1 l contained 0.5 g yeast extract, 0.5 g peptone, 0.5 g casein hydrolysate, 0.5 g starch. 0.3 g potassium hydrogen phosphate, 24 mg magnesium sulphate, 0.3 g sodium pyruvate, 15 g agar). Plates were incubated for seven days at 20° C. Colonies which formed were counted on each plate independent of their appearance and color. […] Two dilutions must be consistent in colony numbers, taken into consideration the respective dilution factors. Numbers were normalized to 1 cm2 of the inner tube surface. Each substance was analysed in duplicates. Biofilms were treated with water (control), ethyl pyruvate […] Numbers are given for each of the different silicon tubes used.

`CCOC(=O)[C@@H](C)O` [(+)-Ethyl D-Lactate] was tested, and the “Effect on the vitality of primary human fibroblasts” value [1] was “not toxic over the concentration range investigated”.
For `CCCCOC(=O)[C@H](C)O` [(−)-Butyl L-Lactate], the “Influence on the enzymatic activity of yeast glyoxalase I” value (“Influence on the enzymatic activity” for short) [2] was “does not influence the reaction of glyoxalase”.
For `CCOC(=O)[C@H](C)O` [(−)-Ethyl L-Lactate], the “Effect on the vitality of primary human fibroblasts” value [1] was “not toxic over the concentration range investigated”.
With `CCCCOC(=O)C(C)O` (stereo not drawn) [Butyl lactate] the “Transformation by NAD-dependent lactate dehydrogenases” value [3] was “to a lesser degree than ethyl lactate, also be transformed”.
`CCCCOC(=O)C(C)=O` [Butyl pyruvate] was tested, and the “Effect on yeast glyoxalase I compared with EP” value ([2]; 0-30 mM, FIG. 3) was “the effect of BP is stronger than the effect of EP” and the “Influence on the enzymatic activity” value [2] was “inhibit the activity of glyoxalase I in a concentration dependent manner”.
`CCOC(C)=O` [Ester control, ethyl acetate, reference compound] was tested, and the “Colony forming units derivable from biofilms after treatment” value (“Colony forming units derivable” below) ([4]; 25 mM, 30 min, first silicon tube) was 5.1 × 10^5 colony forming units, the “Colony forming units derivable” value ([4]; 25 mM, 30 min, second silicon tube) was 6.5 × 10^5 colony forming units and the “Colony forming units derivable” value ([4]; 25 mM, 120 min, first silicon tube) was 7.0 × 10^4 colony forming units. The “Colony forming units derivable” value ([4]; 25 mM, 120 min, second silicon tube) was 1.1 × 10^5 colony forming units.
For `CC(=O)OO` [Peroxo acetic acid, peroxoacetic acid, reference compound], the “Colony forming units derivable” value ([4]; 0.1%, 30 min, first silicon tube) was 8.2 × 10^3 colony forming units, the “Colony forming units derivable” value ([4]; 0.1%, 30 min, second silicon tube) was 9.3 × 10^3 colony forming units and the “Colony forming units derivable” value ([4]; 0.1%, 120 min, first silicon tube) was 3.1 × 10^3 colony forming units. For the same compound, the “Colony forming units derivable” value ([4]; 0.1%, 120 min, second silicon tube) was 4.7 × 10^3 colony forming units.
`CCSC(=O)C(C)=O` [SE, 2-Oxopropanethioic acid S-ethyl ester] was tested, and the “Influence on the enzymatic activity” value [2] was “inhibits the reaction of the glyoxalase I of yeast in a concentration dependent manner”.
